In PubChem BioAssay (NCI):
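In this assay, cells in 96-well plates receive the compound at five concentrations for 48 hours. Endpoints are linearly interpolated between the surrounding concentrations. GI50 = concentration required for 50% inhibition of growth. TGI marks complete inhibition of growth.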

How the values were obtained:
Assay in all cases: NCI tumour cell line growth inhibition, 48 h
UACC-257 melanoma = test system: UACC-257 melanoma
KM12 colon = test system: KM12 colon
RXF 393 renal = test system: RXF 393 renal
PC-3 prostate = test system: PC-3 prostate
A549 NSCLC = test system: A549 NSCLC
K-562 leukemia = test system: K-562 leukemia
EKVX NSCLC = test system: EKVX NSCLC
NCI/ADR-RES ovarian = test system: NCI/ADR-RES ovarian
HL-60(TB) leukemia = test system: HL-60(TB) leukemia
DU-145 prostate = test system: DU-145 prostate
OVCAR-4 ovarian = test system: OVCAR-4 ovarian
786-0 renal = test system: 786-0 renal
NCI-H522 lung = test system: NCI-H522 lung
HCT-15 colon = test system: HCT-15 colon
SR leukemia = test system: SR leukemia
SK-MEL-2 melanoma = test system: SK-MEL-2 melanoma
LOX IMVI melanoma = test system: LOX IMVI melanoma
SW-620 colon = test system: SW-620 colon
MDA-MB-468 breast = test system: MDA-MB-468 breast
IGROV1 ovarian = test system: IGROV1 ovarian
U251 CNS = test system: U251 CNS
COLO 205 colon = test system: COLO 205 colon
SNB-19 CNS = test system: SNB-19 CNS
UACC-62 melanoma = test system: UACC-62 melanoma
HOP-92 NSCLC = test system: HOP-92 NSCLC
HCT-116 colon = test system: HCT-116 colon
MALME-3M melanoma = test system: MALME-3M melanoma
T-47D breast = test system: T-47D breast
HOP-62 NSCLC = test system: HOP-62 NSCLC
CAKI-1 renal = test system: CAKI-1 renal
MDA-MB-435 = test system: MDA-MB-435
A498 renal = test system: A498 renal
BT-549 breast = test system: BT-549 breast
HCC-2998 colon = test system: HCC-2998 colon
UO-31 renal = test system: UO-31 renal
OVCAR-8 ovarian = test system: OVCAR-8 ovarian
RPMI-8226 leukemia = test system: RPMI-8226 leukemia
SF-539 CNS = test system: SF-539 CNS
NCI-H23 lung = test system: NCI-H23 lung
CCRF-CEM leukemia = test system: CCRF-CEM leukemia
SK-OV-3 ovarian = test system: SK-OV-3 ovarian
OVCAR-3 ovarian = test system: OVCAR-3 ovarian
M14 melanoma = test system: M14 melanoma
SF-295 CNS = test system: SF-295 CNS
HT29 colon = test system: HT29 colon
SF-268 CNS = test system: SF-268 CNS
NCI-H226 lung = test system: NCI-H226 lung
SK-MEL-28 melanoma = test system: SK-MEL-28 melanoma
SK-MEL-5 melanoma = test system: SK-MEL-5 melanoma
SNB-75 CNS = test system: SNB-75 CNS
SN12C renal = test system: SN12C renal
OVCAR-5 ovarian = test system: OVCAR-5 ovarian
MDA-MB-231 breast = test system: MDA-MB-231 breast
NCI-H460 lung = test system: NCI-H460 lung
TK-10 renal = test system: TK-10 renal
ACHN renal = test system: ACHN renal

`NS(=O)(=O)c1ccc(N=Nc2c(O)n(CC(=O)Nc3ccccc3)c3ccccc23)cc1` showed a GI50 (UACC-257 melanoma) of 2.02 µM, a TGI (UACC-257 melanoma) of 20.3 µM and a GI50 (KM12 colon) of 1.03 µM. For the same compound, the TGI (KM12 colon) was 22.5 µM, the GI50 (RXF 393 renal) was 1.36 µM and the TGI (RXF 393 renal) was 5.06 µM. For the same compound, the GI50 (PC-3 prostate) was 1.61 µM, the TGI (PC-3 prostate) was 10.9 µM and the GI50 (A549 NSCLC) was 0.738 µM. The TGI (A549 NSCLC) was 4.18 µM, the GI50 (K-562 leukemia) was 0.895 µM and the TGI (K-562 leukemia) was > 100 µM. The GI50 (EKVX NSCLC) was 3.35 µM, the TGI (EKVX NSCLC) was 39.3 µM and the GI50 (NCI/ADR-RES ovarian) was > 100 µM. The TGI (NCI/ADR-RES ovarian) was > 100 µM, the GI50 (HL-60(TB) leukemia) was 0.443 µM and the TGI (HL-60(TB) leukemia) was > 100 µM. For the same compound, the GI50 (DU-145 prostate) was 0.794 µM, the TGI (DU-145 prostate) was 48.3 µM and the GI50 (OVCAR-4 ovarian) was 0.93 µM. For the same compound, the TGI (OVCAR-4 ovarian) was 69.7 µM, the GI50 (786-0 renal) was 1.29 µM and the TGI (786-0 renal) was 6.54 µM. The GI50 (NCI-H522 lung) was 0.589 µM, the TGI (NCI-H522 lung) was 3.8 µM and the GI50 (HCT-15 colon) was 0.533 µM. For the same compound, the TGI (HCT-15 colon) was > 100 µM, the GI50 (SR leukemia) was 0.194 µM and the TGI (SR leukemia) was > 100 µM. For the same compound, the GI50 (SK-MEL-2 melanoma) was 2.25 µM, the TGI (SK-MEL-2 melanoma) was 6.9 µM and the GI50 (LOX IMVI melanoma) was 0.725 µM. It also gave a TGI (LOX IMVI melanoma) of 11.3 µM, a GI50 (SW-620 colon) of 0.402 µM and a TGI (SW-620 colon) of 2.26 µM. It also gave a GI50 (MDA-MB-468 breast) of 0.768 µM, a TGI (MDA-MB-468 breast) of 4.65 µM and a GI50 (IGROV1 ovarian) of 2.79 µM. It also gave a TGI (IGROV1 ovarian) of 14.5 µM, a GI50 (U251 CNS) of 1.17 µM and a TGI (U251 CNS) of 3.88 µM. For the same compound, the GI50 (COLO 205 colon) was 1.24 µM, the TGI (COLO 205 colon) was 6.74 µM and the GI50 (SNB-19 CNS) was 1.67 µM. For the same compound, the TGI (SNB-19 CNS) was 15.1 µM, the GI50 (UACC-62 melanoma) was 0.52 µM and the TGI (UACC-62 melanoma) was 2.81 µM. The GI50 (HOP-92 NSCLC) was 1.6 µM, the TGI (HOP-92 NSCLC) was 6.56 µM and the GI50 (HCT-116 colon) was 0.46 µM. The TGI (HCT-116 colon) was 2.58 µM, the GI50 (MALME-3M melanoma) was 1.09 µM and the TGI (MALME-3M melanoma) was 5.15 µM. It also gave a GI50 (T-47D breast) of 1.89 µM, a TGI (T-47D breast) of 21.4 µM and a GI50 (HOP-62 NSCLC) of 1.8 µM. It also gave a TGI (HOP-62 NSCLC) of 5.5 µM, a GI50 (CAKI-1 renal) of 0.434 µM and a TGI (CAKI-1 renal) of 2.36 µM. The GI50 (MDA-MB-435) was 0.635 µM, the TGI (MDA-MB-435) was 6.1 µM and the GI50 (A498 renal) was 1.29 µM. The TGI (A498 renal) was 5.39 µM, the GI50 (BT-549 breast) was 2.03 µM and the TGI (BT-549 breast) was 7.73 µM. For the same compound, the GI50 (HCC-2998 colon) was 2.2 µM, the TGI (HCC-2998 colon) was 8.56 µM and the GI50 (UO-31 renal) was 0.895 µM. For the same compound, the TGI (UO-31 renal) was 6.95 µM, the GI50 (OVCAR-8 ovarian) was 0.646 µM and the TGI (OVCAR-8 ovarian) was 3.16 µM. The GI50 (RPMI-8226 leukemia) was 1.13 µM, the TGI (RPMI-8226 leukemia) was > 100 µM and the GI50 (SF-539 CNS) was 0.538 µM. It also gave a TGI (SF-539 CNS) of 2.03 µM, a GI50 (NCI-H23 lung) of 0.801 µM and a TGI (NCI-H23 lung) of 3.46 µM. The GI50 (CCRF-CEM leukemia) was 0.776 µM, the TGI (CCRF-CEM leukemia) was > 100 µM and the GI50 (SK-OV-3 ovarian) was 3.11 µM. The TGI (SK-OV-3 ovarian) was 10.2 µM, the GI50 (OVCAR-3 ovarian) was 0.873 µM and the TGI (OVCAR-3 ovarian) was 16 µM. For the same compound, the GI50 (M14 melanoma) was 1.14 µM, the TGI (M14 melanoma) was > 100 µM and the GI50 (SF-295 CNS) was 1.23 µM. It also gave a TGI (SF-295 CNS) of 5.16 µM, a GI50 (HT29 colon) of 0.749 µM and a TGI (HT29 colon) of 2.82 µM. The GI50 (SF-268 CNS) was 3.59 µM, the TGI (SF-268 CNS) was > 100 µM and the GI50 (NCI-H226 lung) was 1.4 µM. The TGI (NCI-H226 lung) was 4.75 µM, the GI50 (SK-MEL-28 melanoma) was 0.932 µM and the TGI (SK-MEL-28 melanoma) was 6.06 µM. It also gave a GI50 (SK-MEL-5 melanoma) of 1 µM, a TGI (SK-MEL-5 melanoma) of 5.5 µM and a GI50 (SNB-75 CNS) of 1.94 µM. It also gave a TGI (SNB-75 CNS) of 8.22 µM, a GI50 (SN12C renal) of 1.14 µM and a TGI (SN12C renal) of 6.05 µM. For the same compound, the GI50 (OVCAR-5 ovarian) was 3.52 µM, the TGI (OVCAR-5 ovarian) was 26.1 µM and the GI50 (MDA-MB-231 breast) was 1.4 µM. For the same compound, the TGI (MDA-MB-231 breast) was 3.92 µM, the GI50 (NCI-H460 lung) was 0.544 µM and the TGI (NCI-H460 lung) was 3.07 µM. The GI50 (TK-10 renal) was 2.64 µM, the TGI (TK-10 renal) was 25.8 µM and the GI50 (ACHN renal) was 0.606 µM. For the same compound, the TGI (ACHN renal) was 4.53 µM.
